Measured values reported in US20050026968A1, “Heterocyclic amides with anti-tuberculosis activity” (priority 2003, published 2005).
≈ marks a conversion by molar mass, not a printed value. Like-named read-outs stand apart in the source and are kept apart here.

Test system: M. tuberculosis H37Ra
Assay: MIC against M. tuberculosis H37Ra, micro broth dilution in microtiter plates
[1] = Mycobacterium tuberculosis, H37RA, Table 5, M. tuberculosis H37Ra, MIC90
[2] = Mycobacterium tuberculosis, H37RA, 168 h, read-out: TB MIC, Table 1, M. tuberculosis H37Ra, 7 days, MIC90 (>90% inhibition of growth)
[3] = Mycobacterium tuberculosis, H37RA, Table 4, M. tuberculosis H37Ra, MIC90
[4] = Mycobacterium tuberculosis, H37RA, Table 6, M. tuberculosis H37Ra, MIC90

CC(C)NC(=O)CN1CCN(C(=O)c2ccc([N+](=O)[O-])o2)CC1 [Compound 78]
MIC [1]: 6.25 µg/mL (≈ 19.3 µM)

COc1cccc(NC(=O)c2ccc(S(=O)(=O)O)o2)c1 [Compound 34, 5-(3-Methoxy-phenylcarbamoyl)-furan-2-sulfonic acid]
MIC [2]: 200 µg/mL (≈ 673 µM)

O=C(Nc1cccc(N2CCC(Cc3ccccc3)CC2)c1)c1ccc([N+](=O)[O-])o1 [Compound 62, 5-Nitro-furan-2-carboxylic acid[3-(4-benzyl-piperidin-1-yl)-phenyl]-amide]
MIC [3]: 12.5 µg/mL (≈ 30.8 µM)

O=C(NCCc1ccccc1)c1ccc([N+](=O)[O-])o1 [Compound 27, 5-Nitro-furan-2-carboxylic acid phenethyl-amide]
MIC [2]: 1.6 µg/mL (≈ 6.15 µM)

O=C(NCc1cccc(N2CCN(Cc3ccccc3)CC2)c1)c1ccc([N+](=O)[O-])o1 [Compound 69, 5-Nitro-furan-2-carboxylic acid 3-(4-benzyl-piperazin-1-yl)-benzylamide]
MIC [3]: < 0.1 µg/mL

O=C(NCc1ccc(N2CCN(Cc3ccccc3)CC2)c(F)c1)c1ccc([N+](=O)[O-])o1 [Compound 99, 5-Nitro-furan-2-carboxylic acid 4-(4-benzyl-piperazin-1-yl)-3-fluoro-benzylamide]
MIC [4]: 0.0125 µg/mL (≈ 0.0285 µM)

O=C(c1ccc([N+](=O)[O-])o1)N1CCC(Cc2ccccc2)CC1 [Compound 72]
MIC [1]: 0.29 µg/mL (≈ 0.923 µM)

O=C(c1ccc([N+](=O)[O-])o1)N1CCN(C2CCCCC2)CC1 [Compound 80]
MIC [1]: 6.25 µg/mL (≈ 20.3 µM)

O=C(Nc1cccc(N2CCN(c3ccccn3)CC2)c1)c1ccc([N+](=O)[O-])o1 [Compound 63, 5-Nitro-furan-2-carboxylic acid[3-(4-pyridin-2-yl-piperazin-1-yl)-phenyl]-amide]
MIC [3]: 1.6 µg/mL (≈ 4.07 µM)

CN1CCN(c2cccc(NC(=O)c3ccc([N+](=O)[O-])o3)c2)CC1 [Compound 60, 5-Nitro-furan-2-carboxylic acid[3-(4-methyl-piperazin-1-yl)-phenyl]-amide]
MIC [3]: 12.5 µg/mL (≈ 37.8 µM)

COc1cccc(CNC(=O)c2ccc([N+](=O)[O-])o2)c1OC [Compound 53, 5-nitro-furan-2-carboxylic acid 2,3-dimethoxy-benzylamide]
MIC [2]: 1.2 µg/mL (≈ 3.92 µM)

O=C(NCc1ccc(N2CCC(Cc3ccccc3)CC2)cc1)c1ccc([N+](=O)[O-])o1 [Compound 67, 5-Nitro-furan-2-carboxylic acid 4-(4-benzyl-piperidin-1-yl)-benzylamide]
MIC [3]: < 0.1 µg/mL

CN(C(=O)c1ccc([N+](=O)[O-])o1)c1ccccc1 [Compound 41]
MIC: 3.1 µg/mL (≈ 12.6 µM)

O=C(NCc1ccc(N2CCOCC2)c(F)c1)c1ccc([N+](=O)[O-])o1 [Compound 102, 5-Nitro-furan-2-carboxylic acid 3-fluoro-4-morpholin-4-yl-benzylamide]
MIC [4]: 0.2 µg/mL (≈ 0.573 µM)

O=C(Nc1cccc(O)c1)c1ccc([N+](=O)[O-])o1 [Compound 35, 5-Nitro-furan-2-carboxylic acid(3-hydroxy-phenyl)-amide]
MIC [2]: 1.6 µg/mL (≈ 6.45 µM)

COc1ccc(CN2CCN(C(=O)c3ccc([N+](=O)[O-])o3)CC2)cc1 [Compound 85]
MIC [1]: < 0.1 µg/mL

O=C(Nc1ccc(N2CCN(Cc3ccccc3)CC2)cc1)c1ccc([N+](=O)[O-])o1 [Compound 56, 5-Nitro-furan-2-carboxylic acid[4-(4-benzyl-piperazin-1-yl)-phenyl]-amide]
MIC [3]: 0.8 µg/mL (≈ 1.97 µM)

O=C(c1ccc([N+](=O)[O-])o1)N1CCN(Cc2ccc(O)cc2)CC1 [Compound 84]
MIC [1]: 1.56 µg/mL (≈ 4.71 µM)

O=C(NCc1ccccc1Cl)c1ccc([N+](=O)[O-])o1 [Compound 21, 5-Nitro-furan-2-carboxylic acid 2-chloro-benzylamide]
MIC [2]: 1.6 µg/mL (≈ 5.7 µM)

CCOC(=O)N1CCN(c2ccc(CNC(=O)c3ccc([N+](=O)[O-])o3)cc2)CC1 [Compound 104, 4-(4-{[(5-Nitro-furan-2-carbonyl)-amino]-methyl}-phenyl)-piperazine-1-carboxylic acid ethyl ester]
MIC [4]: 0.004 µg/mL (≈ 0.00994 µM)

CCN(CC)c1ccc(CN2CCN(C(=O)c3ccc([N+](=O)[O-])o3)CC2)cc1 [Compound 88]
MIC [1]: < 0.1 µg/mL

CN1CCN(c2ccc(CNC(=O)c3ccc([N+](=O)[O-])o3)cc2F)CC1 [Compound 100, 5-Nitro-furan-2-carboxylic acid 3-fluoro-4-(4-methyl-piperazin-1-yl)-benzylamide]
MIC [4]: 0.4 µg/mL (≈ 1.1 µM)

O=C(c1ccc([N+](=O)[O-])o1)N1CCN(c2ncccn2)CC1 [Compound 81]
MIC (Table 5, M. tuberculosis H37Ra, MIC90): 0.1 µg/mL (≈ 0.33 µM)

COc1cccc(NC(=O)c2ccc([S+]([O-])c3ccccc3)o2)c1 (stereo not drawn) [Compound 38, 5-Benzenesulfinyl-furan-2-carboxylic acid(3-methoxy-phenyl)-amide]
MIC [2]: 6.25 µg/mL (≈ 18.3 µM)

O=C(NCc1ccc(N2CCC(Cc3ccccc3)CC2)c(F)c1)c1ccc([N+](=O)[O-])o1 [Compound 103, 5-Nitro-furan-2-carboxylic acid 4-(4-benzyl-piperidin-1-yl)-3-fluoro-benzylamide]
MIC [4]: 0.0125 µg/mL (≈ 0.0286 µM)

CN1CCN(C(=O)c2ccc([N+](=O)[O-])o2)CC1 [Compound 76]
MIC (Mycobacterium tuberculosis, H37RA): 37.5 µg/mL (≈ 157 µM)
MIC [1]: 37.5 µg/mL (≈ 157 µM)

COc1ccc(CNC(=O)c2ccc(Br)o2)cc1 [Compound 32, 5-Bromo-furan-2-carboxylic acid 4-methoxy-benzylamide]
MIC [2]: 200 µg/mL (≈ 645 µM)

O=C(NC12CC3CC(CC(C3)C1)C2)c1ccc([N+](=O)[O-])o1 [Compound 16, 5-Nitro-furan-2-carboxylic acid adamantan-1-ylamide]
MIC [2]: 3.1 µg/mL (≈ 10.7 µM)

O=C(Nc1ccc(N2CCOCC2)cc1)c1ccc([N+](=O)[O-])o1 [Compound 54, 5-Nitro-furan-2-carboxylic acid(4-morpholin-4-yl-phenyl)-amide]
MIC [3]: 1.6 µg/mL (≈ 5.04 µM)

O=C(Nc1ccc(N2CCC(Cc3ccccc3)CC2)cc1)c1ccc([N+](=O)[O-])o1 [Compound 57, 5-Nitro-furan-2-carboxylic acid[4-(4-benzyl-piperidin-1-y1)-phenyl]-amide]
MIC [3]: 3.1 µg/mL (≈ 7.65 µM)

O=C(Nc1ccc(N2CCN(c3ccccn3)CC2)cc1)c1ccc([N+](=O)[O-])o1 [Compound 58, 5-Nitro-furan-2-carboxylic acid. [4-(4-pyridin-2-yl-piperazin-1-yl)-phenyl]-amide]
MIC [3]: 0.4 to 0.8 µg/mL (≈ 1.02 to 2.03 µM)

COc1ccc(CNC(=O)c2ccc([N+](=O)[O-])o2)cc1 [Compound 20, 5-Nitro-furan-2-carboxylic acid 4-methoxy-benzylamide]
MIC [2]: 0.1 µg/mL (≈ 0.362 µM)

O=C(Nc1cccc(N2CCOCC2)c1)c1ccc([N+](=O)[O-])o1 [Compound 59, 5-Nitro-furan-2-carboxylic acid(3-morpholin-4-yl-phenyl)-amide]
MIC [3]: 3.1 µg/mL (≈ 9.77 µM)

COc1cccc(CN2CCN(C(=O)c3ccc([N+](=O)[O-])o3)CC2)c1 [Compound 86]
MIC [1]: 1.56 µg/mL (≈ 4.52 µM)

CCCNC(=O)N1CCN(c2ccc(CNC(=O)c3ccc([N+](=O)[O-])o3)cc2)CC1 [Compound 105, 4-(4-{[(5-Nitro-furan-2-carbonyl)-amino]-methyl}-phenyl)-piperazine-1-carboxylic acid propylamide]
MIC [4]: 0.0125 µg/mL (≈ 0.0301 µM)

CN1CCN(c2ccc(NC(=O)c3ccc([N+](=O)[O-])o3)cc2)CC1 [Compound 55, 5-Nitro-furan-2-carboxylic acid[4-(4-methyl-piperazin-1-yl)-phenyl]-amide]
MIC [3]: 6.25 µg/mL (≈ 18.9 µM)

O=C(Nc1cccc(N2CCN(Cc3ccccc3)CC2)c1)c1ccc([N+](=O)[O-])o1 [Compound 61, 5-Nitro-furan-2-carboxylic acid[3-(4-benzyl-piperazin-1-yl)-phenyl]-amide]
MIC [3]: 12.5 µg/mL (≈ 30.8 µM)

O=C(Nc1ccccc1)c1ccc([N+](=O)[O-])o1 [Compound 17, 5-Nitro-furan-2-carboxylic acid phenylamide]
MIC [2]: 0.8 µg/mL (≈ 3.45 µM)
